In patent US11279683B2, “Thiophene derivatives as antiviral agents” (ENYO PHARMA, priority 2016, dated 2022):

Tested on: p62
Test: p62 expression measurement
Assay type: cell-based
Details: not given
Source text: The autophagy-inducing effect has been assessed by LC3 lipidation assay and by p62 expression measurement.

| SMILES | p62 expression* |
| --- | --- |
| O=C(Nc1ccc(Cl)cc1)c1c(NC(=O)C2CCCCC2C(=O)O)sc2cscc12 (stereo not shown) [Compound 42, 2-[[3-[(4-Chlorophenyl)carbamoyl]thieno[3,4-b]thiophen-2-yl]carbamoyl]cyclohexanecarboxylic acid] | down |
| O=C(Nc1ccc(Cl)cc1)c1c(NC(=O)C2CCCCC2C(=O)O)sc2ccccc12 (stereo not shown) [Compound 41, 2-[[3-[(4-Chlorophenyl)carbamoyl]benzothiophen-2-yl]carbamoyl]cyclohexane carboxylic acid] | down |
| O=C(Nc1ccc(Cl)cc1)c1c(NC(=O)C2CCCCC2C(=O)O)sc2c1CCC2 (stereo not drawn) [Compound 57, 2-[[3-[(4-Chlorophenyl)carbamoyl]-5,6-dihydro-4H-cyclopenta[b]thiophen-2-yl]carbamoyl]cyclohexane-cis-carboxylic acid] | down |

Tested on: H1N1 (influenza A/New Caledonia/20/99)
Test: microbe, parasite or virus in culture
Assay type: cell-based
Details: not given

| SMILES | IC50 [µM] |
| --- | --- |
| O=C(Nc1ccc(Cl)cc1)c1c(NC(=O)C2CCCCC2C(=O)O)sc2c1CCC2 (stereo not drawn) [Compound 57, 2-[[3-[(4-Chlorophenyl)carbamoyl]-5,6-dihydro-4H-cyclopenta[b]thiophen-2-yl]carbamoyl]cyclohexane-cis-carboxylic acid] | 7.18 |

Same assay, conditions: Influenza A virus, H1N1, A549, 48 h

| SMILES | IC50 [µM] |
| --- | --- |
| O=C(Nc1ccc(Cl)cc1)c1c(NC(=O)C2CCCCC2C(=O)O)sc2cscc12 (stereo not shown) [Compound 42, 2-[[3-[(4-Chlorophenyl)carbamoyl]thieno[3,4-b]thiophen-2-yl]carbamoyl]cyclohexanecarboxylic acid] | 3.08 |
| O=C(Nc1ccc(Cl)cc1)c1c(NC(=O)C2CCCCC2C(=O)O)sc2ccccc12 (stereo not shown) [Compound 41, 2-[[3-[(4-Chlorophenyl)carbamoyl]benzothiophen-2-yl]carbamoyl]cyclohexane carboxylic acid] | 3.53 |
| N#Cc1ccc(NC(=O)c2c(NC(=O)C3CCCCC3C(=O)O)sc3c2CCC3)cc1 (stereo not shown) [Compound 28, 2-[[3-[(4-Cyanophenyl)carbamoyl]-5,6-dihydro-4H-cyclopenta[b]thiophen-2-yl]carbamoyl]cyclohexanecarboxylic acid] | 15.9 |
| NS(=O)(=O)N1CCOC(C(=O)Nc2sc3c(c2C(=O)Nc2ccc(Cl)cc2)CCC3)C1 (stereo not shown) [Compound 87, N-[3-[(4-chlorophenyl)carbamoyl]-5,6-dihydro-4H-cyclopenta[b]thiophen-2-yl]-4-sulfamoyl-morpholine-2-carboxamide] | 6.75 |
| CC(=O)c1cccc(NC(=O)c2c(NC(=O)C3CCCCC3C(=O)O)sc3c2CCC3)c1 (stereo not shown) [Compound 12, 2-[[3-[(3-Acetylphenyl)carbamoyl]-5,6-dihydro-4H-cyclopenta[b]thiophen-2-yl]carbamoyl]cyclohexanecarboxylic acid] | 21.2 |
| CO[C@H]1CC[C@H](NC(=O)c2c(NC(=O)C3CCCCC3C(=O)O)sc3c2CCC3)CC1 (stereo partly drawn) [Compound 8, 2-[[3-[(Trans-4-methoxycyclohexyl)carbamoyl]-5,6-dihydro-4H-cyclopenta[b]thiophen-2-yl]carbamoyl]cyclohexanecarboxylic acid] | 27.4 |
| O=C(Nc1ccc(F)cc1)c1c(NC(=O)C2CCCCC2C(=O)O)sc2c1CCC2 (stereo not shown) [Compound 4, 2-[[3-[(4-Fluorophenyl)carbamoyl]-5,6-dihydro-4H-cyclopenta[b]thiophen-2-yl]carbamoyl]cyclohexanecarboxylic acid] | 15 |
| CC(=O)N1CCC1C(=O)Nc1sc2c(c1C(=O)Nc1ccc(Cl)cc1)CCC2 (stereo not shown) [Compound 84, 1-acetyl-N-[3-[(4-chlorophenyl)carbamoyl]-5,6-dihydro-4H-cyclopenta[b]thiophen-2-yl]azetidine-2-carboxamide] | 29.6 |
| O=C(Nc1ccc(CCO)cc1)c1c(NC(=O)C2CCCCC2C(=O)O)sc2c1CCC2 (stereo not shown) [Compound 9, 2-[[3-[[4-(2-Hydroxyethyl)phenyl]carbamoyl]-5,6-dihydro-4H-cyclopenta[b]thiophen-2-yl]carbamoyl]cyclohexanecarboxylic acid] | 21.1 |
| O=C(Cc1cnccn1)Nc1sc2c(c1C(=O)Nc1ccc(Cl)cc1)CCC2 [Compound 78, N-(4-chlorophenyl)-2-[(2-pyrazin-2-ylacetyl)amino]-5,6-dihydro-4H-cyclopenta[b]thiophene-3-carboxamide] | 1 |
| O=C(Nc1ccc(OC(F)(F)F)cc1)c1c(NC(=O)C2CCCCC2C(=O)O)sc2c1CCC2 (stereo not shown) [Compound 20, 2-[[3-[[4-(Trifluoromethoxy)phenyl]carbamoyl]-5,6-dihydro-4H-cyclopenta[b]thiophen-2-yl]carbamoyl]cyclohexanecarboxylic acid] | 6.48 |
| O=C(Nc1ccc(Cl)cc1)c1c(NC(=O)N2CCCCC2C(=O)O)sc2c1CCC2 (stereo not shown) [Compound 89, 1-[[3-[(4-chlorophenyl)carbamoyl]-5,6-dihydro-4H-cyclopenta[b]thiophen-2-yl]carbamoyl]piperidine-2-carboxylic acid] | 8.8 |
| O=C(Nc1ccc(F)c(F)c1)c1c(NC(=O)C2CCCCC2C(=O)O)sc2c1CCC2 (stereo not shown) [Compound 16, 2-[[3-[(3,4-Difluorophenyl)carbamoyl]-5,6-dihydro-4H-cyclopenta[b]thiophen-2-yl]carbamoyl]cyclohexanecarboxylic acid] | 10.4 |
| CC1CCC(NC(=O)c2c(NC(=O)C3CCCCC3C(=O)O)sc3c2CCC3)CC1 (stereo not shown) [Compound 35, 2-[[3-[(4-Methylcyclohexyl)carbamoyl]-5,6-dihydro-4H-cyclopenta[b]thiophen-2-yl]carbamoyl]cyclohexanecarboxylic acid] | 12.4 |
| O=C(Nc1ccc(Cl)cc1)c1c(NC(=O)C2CCCCC2C(=O)O)sc2c1CSC2 (stereo not shown) [Compound 38, 2-[[3-[(4-Chlorophenyl)carbamoyl]-4,6-dihydrothieno[3,4-b]thiophen-2-yl]carbamoyl]cyclohexanecarboxylic acid] | 6.44 |
| Cc1ccc(NC(=O)c2c(NC(=O)C3CC=CCC3C(=O)O)sc3c2CCCC3)cc1 (stereo not shown) [Compound 60, 6-[[3-(p-Tolylcarbamoyl)-4,5,6,7-tetrahydrobenzothiophen-2-yl]carbamoyl]cyclohex-3-ene-1-carboxylic acid] | 54.8 |
| O=C(Nc1ccc(-c2ccccc2)cc1)c1c(NC(=O)C2CCCCC2C(=O)O)sc2c1CCC2 (stereo not shown) [Compound 10, 2-[[3-[(4-Phenylphenyl)carbamoyl]-5,6-dihydro-4H-cyclopenta[b]thiophen-2-yl]carbamoyl]cyclohexanecarboxylic acid] | 2.38 |
| NC(=O)N1CCOCC1C(=O)Nc1sc2c(c1C(=O)Nc1ccc(Cl)cc1)CCC2 (stereo not shown) [Compound 82, N3-[3-[(4-chlorophenyl)carbamoyl]-5,6-dihydro-4H-cyclopenta[b]thiophen-2-yl]morpholine-3,4-dicarboxamide] | 4.4 |
| O=C(O)C=CC(=O)Nc1sc2c(c1C(=O)Nc1ccc(Cl)cc1)CCC2 [Compound 43, 4-[[3-[(4-Chlorophenyl)carbamoyl]-5,6-dihydro-4H-cyclopenta[b]thiophen-2-yl]amino]-4-oxo-but-2-enoic acid] | 33.2 |
| O=C(NC1CCC(F)(F)CC1)c1c(NC(=O)C2CCCCC2C(=O)O)sc2c1CCC2 (stereo not shown) [Compound 18, 2-[[3-[(4,4-Difluorocyclohexyl)carbamoyl]-5,6-dihydro-4H-cyclopenta[b]thiophen-2-yl]carbamoyl]cyclohexanecarboxylic acid] | 33 |
| O=C(Nc1ccc(Cl)cc1)c1c(NC(=O)C2CCCCC2C(=O)O)sc2c1CCC2 (stereo not drawn) [Compound 49, 2-[[3-[(4-Chlorophenyl)carbamoyl]-5,6-dihydro-4H-cyclopenta[b]thiophen-2-yl]carbamoyl]cyclohexane-trans-carboxylic acid] | 12.2 |
| O=C(Nc1ccc(Cl)cc1)c1ccsc1NC(=O)C1C2CCC(CC2)C1C(=O)O (stereo not shown) [Compound 71, 2-[[3-[(4-Chlorophenyl)carbamoyl]-2-thienyl]carbamoyl]bicyclo[2.2.2]octane-3-carboxylic acid] | 12.2 |
| O=C(Nc1ccc(Cl)cc1)c1c(N2C(=O)C3CCCCC3C2=O)sc2c1CCC2 (stereo not shown) [Compound 54, N-(4-Chlorophenyl)-2-(1,3-dioxo-3a,4,5,6,7,7a-hexahydroisoindol-2-yl)-5,6-dihydro-4H-cyclopenta[b]thiophene-3-carboxamide] | 5.98 |
| O=C(Nc1ccc(Cl)cc1)c1c(NC(=O)C2C3CCC(O3)C2C(=O)O)sc2c1CCC2 (stereo not shown) [Compound 51, 2-[[3-[(4-Chlorophenyl)carbamoyl]-5,6-dihydro-4H-cyclopenta[b]thiophen-2-yl]carbamoyl]-7-oxabicyclo[2.2.1]heptane-3-carboxylic acid] | 29.7 |
| CONC(=O)[C@@H]1CCCC[C@@H]1C(=O)Nc1sc2c(c1C(=O)Nc1ccc(Cl)cc1)CCC2 (stereo in doubt) [Compound 88, N1-[3-[(4-chlorophenyl)carbamoyl]-5,6-dihydro-4H-cyclopenta[b]-thiophen-2-yl]-N2-methoxy-cyclohexane-1,2-dicarboxamide] | 8.4 |
| O=C(Nc1ccc2c(c1)COC2)c1c(NC(=O)C2CCCCC2C(=O)O)sc2c1CCC2 (stereo not shown) [Compound 30, 2-[[3-(1,3-Dihydroisobenzofuran-5-ylcarbamoyl)-5,6-dihydro-4H-cyclopenta[b]thiophen-2-yl]carbamoyl]cyclohexanecarboxylic acid] | 19.6 |
| Cc1ccc(NC(=O)c2c(NC(=O)C3CCCCC3C(=O)O)sc3c2CCC3)cc1 (stereo not shown) [Compound 66, 2-[[3-(p-Tolylcarbamoyl)-5,6-dihydro-4H-cyclopenta[b]thiophen-2-yl]carbamoyl]cyclohexanecarboxylic acid] | 11.7 |
